Measured values reported in patent US20100204265A1 (priority 2009, published 2010).

The compounds below were run on ET (Huh-lucubineo-ET) cell line harboring I389luc-ubi-neo/NS3-3′/ET HCV replicon (assay: Replicon assay (HCV replicon, luciferase readout)). Conditions: Hepatitis C virus.
Format: cell-based
In short: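 Compounds at 10-point 2-fold dilutions (overall 0.1 nM to […], 0.5% DMSO) were applied to ET cells carrying a luciferase-neo HCV replicon, seeded a day earlier. After 48-72 hours, luciferase-based % inhibition was fitted with a Hill equation for EC50, and parallel WST-1 readings gave TC50.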

| Compound | EC50 [µM] |
| --- | --- |
| O=C1CCC=C1C1=CCN(C(=O)c2nc3c(C(F)(F)F)cc(-c4ccoc4)cn3c2Cl)CC1 [Compound 159, 2-[1-(3-Chloro-6-furan-3-yl-8-trifluoromethyl-imidazo[1,2-a]pyridine-2-carbonyl)-1,2,3,6-tetrahydro-pyridin-4-yl]-cyclopent-2-enone] | 0.247 |
| O=C(Cc1cn2cc(-c3ccoc3)cc(C(F)(F)F)c2n1)N1CCCC1c1cccs1 (stereo not drawn) [Compound 188, 2-(6-Furan-3-yl-8-trifluoromethyl-imidazo[1,2-a]pyridin-2-yl)-1-(2-thiophen-2-yl-pyrrolidin-1-yl)-ethanone] | > 50 |
| CC(=O)NC(CC(C)C)C(=O)NCc1cn2cc(-c3ccoc3)cc(C(F)(F)F)c2n1 (stereo not drawn) [Compound 243, 2-Acetylamino-4-methyl-pentanoic acid (6-furan-3-yl-8-trifluoromethyl-imidazo[1,2-a]pyridin-2-ylmethyl)-amide] | > 50 |
| COC(=O)CNC(=O)c1cn2cc(-c3ccoc3)cc(C(F)(F)F)c2n1 [Compound 246, [(6-Furan-3-yl-8-trifluoromethyl-imidazo[1,2-a]pyridine-2-carbonyl)-amino]-acetic acid methyl ester] | > 50 |
| O=C(c1cc2nc(-c3cccs3)cc(C(F)(F)F)c2[nH]1)N1CC=C(c2ncccc2F)CC1 [Compound 117, (3-Fluoro-3′,6′-dihydro-2′H-[2,4′]bipyridinyl-1′-yl)-(5-thiophen-2-yl-7-trifluoromethyl-1H-pyrrolo[3,2-b]pyridin-2-yl)-methanone] | 23.9 |
| CC(=O)NCC(=O)NCc1cn2cc(-c3ccoc3)cc(C(F)(F)F)c2n1 [Compound 240, 2-Acetylamino-N-(6-furan-3-yl-8-trifluoromethyl-imidazo[1,2-a]pyridin-2-ylmethyl)-acetamide] | > 50 |
| COC(=O)C(Cc1ccccc1)NC(=O)Cc1cn2cc(-c3ccoc3)cc(C(F)(F)F)c2n1 (stereo not drawn) [Compound 312, 2-[2-(6-Furan-3-yl-8-trifluoromethyl-imidazo[1,2-a]pyridin-2-yl)-acetylamino]-3-phenyl-propionic acid methyl ester] | > 50 |
| CC(O)C(NC(=O)c1cn2cc(-c3ccoc3)cc(C(F)(F)F)c2n1)C(=O)O (stereo not drawn) [Compound 269, 2-[(6-Furan-3-yl-8-trifluoromethyl-imidazo[1,2-a]pyridine-2-carbonyl)-amino]-3-hydroxy-butyric acid] | > 50 |
| O=C(c1nc2c(C(F)(F)F)cc(C3=CCCCC3)cn2c1Cl)N1CC=C(c2nccs2)C1 [Compound 217, (3-Chloro-6-cyclohex-1-enyl-8-trifluoromethyl-imidazo[1,2-a]pyridin-2-yl)-(3-thiazol-2-yl-2,5-dihydro-pyrrol-1-yl)-methanone] | 0.0505 |
| CCS(=O)(=O)NC1CN(C(=O)c2cn3cc(-c4coc(Br)c4)cc(C(F)(F)F)c3n2)C1 [Compound 146, Ethanesulfonic acid {1-[6-(5-bromo-furan-3-yl)-8-trifluoromethyl-imidazo[1,2-a]pyridine-2-carbonyl]-azetidin-3-yl}-amide] | 2.24 |
| COC(=O)C(C)NC(=O)c1cn2cc(-c3ccoc3)cc(C(F)(F)F)c2n1 (stereo not drawn) [Compound 250, 2-[(6-Furan-3-yl-8-trifluoromethyl-imidazo[1,2-a]pyridine-2-carbonyl)-amino]-propionic acid methyl ester] | > 50 |
| O=C(NCCc1cn2cc(-c3ccoc3)cc(C(F)(F)F)c2n1)c1ccccc1 [Compound 138, N-[2-(6-Furan-3-yl-8-trifluoromethyl-imidazo[1,2-a]pyridin-2-yl)-ethyl]-benzamide] | 35.3 |
| CC(O)c1c(C(=O)N2CC=C(c3ncccc3F)CC2)nc2c(C(F)(F)F)cc(-c3ccoc3)cn12 (stereo not drawn) [Compound 172, (3-Fluoro-3′,6′-dihydro-2′H-[2,4′]bipyridinyl-1′-yl)-[6-furan-3-yl-3-(1-hydroxy-ethyl)-8-trifluoromethyl-imidazo[1,2-a]pyridin-2-yl]-methanone] | 3.11 |
| CN(C)C(=O)CNC(=O)Cc1cn2cc(-c3ccoc3)cc(C(F)(F)F)c2n1 [Compound 302, N-Dimethylcarbamoylmethyl-2-(6-furan-3-yl-8-trifluoromethyl-imidazo[1,2-a]pyridin-2-yl)-acetamide] | > 50 |
| O=C(c1nc2c(C(F)(F)F)cc(-c3cn[nH]c3)cn2c1Cl)N1CC=C(C2=CCNCC2)C1 [Compound 136, [3-Chloro-6-(1H-pyrazol-4-yl)-8-trifluoromethyl-imidazo[1,2-a]pyridin-2-yl]-[3-(1,2,3,6-tetrahydro-pyridin-4-yl)-2,5-dihydro-pyrrol-1-yl]-methanone] | 5.37 |
| CN(C)C(=O)C1CCCN1C(=O)c1cn2cc(-c3ccoc3)cc(C(F)(F)F)c2n1 (stereo not drawn) [Compound 281, 1-(6-Furan-3-yl-8-trifluoromethyl-imidazo[1,2-a]pyridine-2-carbonyl)-pyrrolidine-2-carboxylic acid dimethylamide] | > 50 |
| CC(O)[C@H](NC(=O)Cc1cn2cc(-c3ccoc3)cc(C(F)(F)F)c2n1)C(N)=O (stereo partly drawn) [Compound 299, 2-[2-(6-Furan-3-yl-8-trifluoromethyl-imidazo[1,2-a]pyridin-2-yl)-acetylamino]-3-hydroxy-butyramide] | > 50 |

| Compound | EC50 [µM] |
| --- | --- |
| O=C(c1nc2c(C(F)(F)F)cc(C3=CCCC3)cn2c1Cl)N1CC=C(c2ncccc2F)CC1 [Compound 151, (3-Chloro-6-cyclopent-1-enyl-8-trifluoromethyl-imidazo[1,2-a]pyridin-2-yl)-(3-fluoro-3′,6′-dihydro-2′H-[2,4′]bipyridinyl-1′-yl)-methanone] | 0.734 |
| NC(=O)[C@H]1CCCN1C(=O)Cc1cn2cc(-c3ccoc3)cc(C(F)(F)F)c2n1 [Compound 313, 1-[2-(6-Furan-3-yl-8-trifluoromethyl-imidazo[1,2-a]pyridin-2-yl)-acetyl]-pyrrolidine-2-carboxylic acid amide] | > 50 |
| O=C(c1nc2c(C(F)(F)F)cc(/C=C/C3CC3)cn2c1Cl)N1CC=C(c2ncccc2F)CC1 [Compound 127, [3-Chloro-6-(2-cyclopropyl-vinyl)-8-trifluoromethyl-imidazo[1,2-a]pyridin-2-yl]-(3-fluoro-3′,6′-dihydro-2′H-[2,4′]bipyridinyl-1′-yl)-methanone] | 0.428 |
| O=C(NC1CCC(c2ccccc2)CC1)c1nc2c(C(F)(F)F)cc(-c3ccoc3)cn2c1Cl (stereo not drawn) [Compound 193, 3-Chloro-6-furan-3-yl-8-trifluoromethyl-imidazo[1,2-a]pyridine-2-carboxylic acid (4-phenyl-cyclohexyl)-amide] | 2.5 |
| O=C(c1nc2c(C(F)(F)F)cc(-c3cn[nH]c3)cn2c1Cl)N1CC=C(c2ccccc2F)C1 [Compound 103, [3-Chloro-6-(1H-pyrazol-4-yl)-8-trifluoromethyl-imidazo[1,2-a]pyridin-2-yl]-[3-(2-fluoro-phenyl)-2,5-dihydro-pyrrol-1-yl]-methanone] | 0.0389 |
| COC(=O)CNC(=O)Cc1cn2cc(-c3ccoc3)cc(C(F)(F)F)c2n1 [Compound 290, [2-(6-Furan-3-yl-8-trifluoromethyl-imidazo[1,2-a]pyridin-2-yl)-acetylamino]-acetic acid methyl ester] | > 50 |
| O=C1c2ccccc2C(=O)N1Cc1cn2cc(-c3ccoc3)cc(C(F)(F)F)c2n1 [Compound 234, 2-(6-Furan-3-yl-8-trifluoromethyl-imidazo[1,2-a]pyridin-2-ylmethyl)-isoindole-1,3-dione] | > 50 |
| CC(=O)NC(C(=O)NCc1cn2cc(-c3ccoc3)cc(C(F)(F)F)c2n1)C(C)O (stereo not drawn) [Compound 289, 2-Acetylamino-N-(6-furan-3-yl-8-trifluoromethyl-imidazo[1,2-a]pyridin-2-ylmethyl)-3-hydroxy-butyramide] | > 50 |
| O=C(c1nc2c(C(F)(F)F)cc(-c3cn[nH]c3)cn2c1Cl)N1CCC(OCC2CC2)CC1 [Compound 174, [3-Chloro-6-(1H-pyrazol-4-yl)-8-trifluoromethyl-imidazo[1,2-a]pyridin-2-yl]-(4-cyclopropylmethoxy-piperidin-1-yl)-methanone] | 0.31 |
| NC(=O)COC1CCN(C(=O)c2nc3c(C(F)(F)F)cc(-c4cn[nH]c4)cn3c2Cl)CC1 [Compound 182, 2-{1-[3-Chloro-6-(1H-pyrazol-4-yl)-8-trifluoromethyl-imidazo[1,2-a]pyridine-2-carbonyl]-piperidin-4-yloxy}-acetamide] | 54.6 |
| O=C(c1nc2c(C(F)(F)F)cc(-c3ccoc3)cn2c1Cl)N1CC=C(c2ncccc2C(F)(F)F)CC1 [Compound 205, (3-Chloro-6-furan-3-yl-8-trifluoromethyl-imidazo[1,2-a]pyridin-2-yl)-(3-trifluoromethyl-3′,6′-dihydro-2′H-[2,4′]bipyridinyl-1′-yl)-methanone] | 18 |
| CC(=O)N1CCCC1C(=O)NCc1cn2cc(-c3ccoc3)cc(C(F)(F)F)c2n1 (stereo not drawn) [Compound 284, 1-Acetyl-pyrrolidine-2-carboxylic acid (6-furan-3-yl-8-trifluoromethyl-imidazo[1,2-a]pyridin-2-ylmethyl)-amide] | > 50 |
| CCOC1CCN(C(=O)c2nc3c(C(F)(F)F)cc(-c4cn[nH]c4)cn3c2Cl)CC1 [Compound 177, [3-Chloro-6-(1H-pyrazol-4-yl)-8-trifluoromethyl-imidazo[1,2-a]pyridin-2-yl]-(4-ethoxy-piperidin-1-yl)-methanone] | 1.08 |
| O=C(NC(CO)C(=O)O)c1cn2cc(-c3ccoc3)cc(C(F)(F)F)c2n1 (stereo not drawn) [Compound 267, 2-[(6-Furan-3-yl-8-trifluoromethyl-imidazo[1,2-a]pyridine-2-carbonyl)-amino]-3-hydroxy-propionic acid] | > 50 |
| O=S(=O)(NCc1cn2cc(-c3ccoc3)cc(C(F)(F)F)c2n1)C1CC1 [Compound 227, Cyclopropanesulfonic acid (6-furan-3-yl-8-trifluoromethyl-imidazo[1,2-a]pyridin-2-ylmethyl)-amide] | > 50 |
| Clc1ccc(Cn2c(CN3CCCC3)nc3ccccc32)cc1 [Compound 235, 1-(4-Chloro-benzyl)-2-pyrrolidin-1-ylmethyl-1H-benzoimidazole] | 40.2 |
